Reference: patent US11814367B2, “Inhibitors of glycogen synthase 1 (GYS1) and methods of use thereof” (Maze Therapeutics, Inc., priority 2021, dated 2023)

Key:
[1] = tested on: hGYS1 enzyme / glycogen synthesis in HeLa cells; assay: GYS1 cell based assay (glycogen synthesis, Glucose-glo); set-up: species or system human; settings: Homo sapiens, HeLa, 24 h, 24 h incubation, 20 mM glucose, geometric mean of at least 2 runs
Outline: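 HeLa cells starved 24 h in medium containing only 1× Glutamax were plated onto compound in medium with 20 mM glucose (1% DMSO final) for 24 h, 37 °C, 5% CO2. Acid lysates were Tris-quenched, glucoamylase-digested (pH 5.3, 1 h, 37 °C) and read by Glucose-glo luminescence. IC50 came from Hill fits, as geometric mean of ≥2 runs.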

[2] = molecular target: hGYS2 enzyme (recombinant hGYS2/GN1 protein) (Homo sapiens (Human), UniProt P54840); assay: GYS2 coupled enzyme assay (PK/LDH); type: biochemical; settings: geometric mean of at least 2 assay runs on separate days, read-out: Avg_IC50
Outline: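 Read-out: NADH loss at 340 nm, read each minute for 10 min, slope normalized to controls, duplicate % inhibition fit to Hill (0–100). Enzyme: 200 nM hGYS2/GN1; substrate 2 mM UDP-glucose plus 0.2% glycogen and 2 mM G6P; pH 7.5 Tris, 2.5% DMSO.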

[3] = molecular target: hGYS1 enzyme (recombinant hGYS1/GN1 protein) (Homo sapiens (Human), UniProt P13807); assay: GYS1 coupled enzyme assay (PK/LDH); type: biochemical; settings: hGYS1/GN1 50 nM, UDP-Glucose 0.8 mM, G6P 1 mM; geometric mean of at least 2 runs
Chain of hGYS1 enzyme (recombinant hGYS1/GN1 protein) (P13807 whole entry): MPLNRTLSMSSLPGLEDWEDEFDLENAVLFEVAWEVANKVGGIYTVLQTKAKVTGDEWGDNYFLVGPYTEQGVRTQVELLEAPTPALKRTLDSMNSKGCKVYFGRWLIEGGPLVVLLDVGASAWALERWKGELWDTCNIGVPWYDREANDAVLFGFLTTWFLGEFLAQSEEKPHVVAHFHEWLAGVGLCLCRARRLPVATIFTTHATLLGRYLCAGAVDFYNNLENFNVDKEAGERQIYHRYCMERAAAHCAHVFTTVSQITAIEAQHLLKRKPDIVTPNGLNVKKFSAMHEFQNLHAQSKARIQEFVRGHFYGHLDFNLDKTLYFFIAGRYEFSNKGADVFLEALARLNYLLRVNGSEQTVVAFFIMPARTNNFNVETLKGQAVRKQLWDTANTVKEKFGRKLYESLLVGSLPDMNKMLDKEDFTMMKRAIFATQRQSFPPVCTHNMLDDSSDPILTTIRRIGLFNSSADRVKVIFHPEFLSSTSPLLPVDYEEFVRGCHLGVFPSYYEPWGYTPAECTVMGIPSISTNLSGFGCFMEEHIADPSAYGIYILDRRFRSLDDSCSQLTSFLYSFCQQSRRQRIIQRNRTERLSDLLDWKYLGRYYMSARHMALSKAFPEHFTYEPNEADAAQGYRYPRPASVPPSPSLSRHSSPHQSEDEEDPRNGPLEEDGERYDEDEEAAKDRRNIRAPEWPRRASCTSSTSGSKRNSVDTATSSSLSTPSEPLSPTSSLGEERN
Chain of hGYS1 enzyme (recombinant hGYS1/GN1 protein) (P46976 whole entry partner): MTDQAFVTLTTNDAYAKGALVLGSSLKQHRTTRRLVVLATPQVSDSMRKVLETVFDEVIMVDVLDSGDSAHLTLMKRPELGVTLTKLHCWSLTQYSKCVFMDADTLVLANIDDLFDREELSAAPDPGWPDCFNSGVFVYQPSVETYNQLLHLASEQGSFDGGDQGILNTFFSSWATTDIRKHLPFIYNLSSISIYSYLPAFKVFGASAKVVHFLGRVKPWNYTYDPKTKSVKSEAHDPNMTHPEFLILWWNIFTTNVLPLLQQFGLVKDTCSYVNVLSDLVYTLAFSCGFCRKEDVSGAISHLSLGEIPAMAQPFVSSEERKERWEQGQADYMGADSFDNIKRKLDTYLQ

Chain of hGYS2 enzyme (recombinant hGYS2/GN1 protein) (P54840 whole entry): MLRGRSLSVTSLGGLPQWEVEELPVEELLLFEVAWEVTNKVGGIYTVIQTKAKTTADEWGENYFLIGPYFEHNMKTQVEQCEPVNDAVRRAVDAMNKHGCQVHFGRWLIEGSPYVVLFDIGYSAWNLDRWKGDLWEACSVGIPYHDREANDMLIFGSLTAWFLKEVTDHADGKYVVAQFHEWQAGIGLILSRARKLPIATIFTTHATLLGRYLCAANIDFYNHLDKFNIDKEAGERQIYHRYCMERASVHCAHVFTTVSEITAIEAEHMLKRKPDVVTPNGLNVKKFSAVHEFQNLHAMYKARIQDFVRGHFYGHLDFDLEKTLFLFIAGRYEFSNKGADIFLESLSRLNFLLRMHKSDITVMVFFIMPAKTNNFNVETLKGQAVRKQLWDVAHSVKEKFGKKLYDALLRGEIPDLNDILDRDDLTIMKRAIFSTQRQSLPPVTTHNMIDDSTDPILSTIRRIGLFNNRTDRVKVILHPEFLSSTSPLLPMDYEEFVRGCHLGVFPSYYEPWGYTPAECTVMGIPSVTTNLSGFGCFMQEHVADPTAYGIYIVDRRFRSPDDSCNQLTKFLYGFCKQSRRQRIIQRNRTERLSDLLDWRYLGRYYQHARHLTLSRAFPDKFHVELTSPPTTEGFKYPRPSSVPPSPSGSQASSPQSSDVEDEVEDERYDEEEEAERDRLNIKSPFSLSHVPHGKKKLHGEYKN
Chain of hGYS2 enzyme (recombinant hGYS2/GN1 protein) (P46976 whole entry partner): as the sequence (P46976 whole entry partner) above

Row | SMILES | IC50 [1] [nM] | IC50 [2] [nM] | IC50 [3] [nM]
1 | O=C(N[C@@H](c1ccccc1)c1ccc(C2CC2)c(F)n1)[C@@H]1C[C@@H](F)CN1C(=O)CNC(=O)N1CC(F)(F)C1 [Compound 315, (2S,4R)-N-[(S)-(5-cyclopropyl-6-fluoropyridin-2-yl)(phenyl)methyl]-1-{2-[(3,3-difluoroazetidine-1-carbonyl)amino]acetyl}-4-fluoropyrrolidine-2-carboxamide] | 730 | > 100000 | 23
2 | CC1(c2ccc([C@@H](NC(=O)[C@@H]3C[C@@H](F)CN3C(=O)CN3CCN(CC(F)(F)F)CC3=O)c3ccccc3)cc2F)CC1 [Compound 580, (2S,4R)-4-fluoro-N-[(S)-[3-fluoro-4-(1-methylcyclopropyl)phenyl](phenyl)methyl]-1-{2-[2-oxo-4-(2,2,2-trifluoroethyl)piperazin-1-yl]acetyl}pyrrolidine-2-carboxamide] | 4270 | > 100000 | 249
3 | Cc1cn(CC(=O)N2C[C@H](F)C[C@H]2C(=O)N[C@@H](c2ccccc2)c2ccc(C3CC3)c(F)c2)cn1 [Compound 468, (2S,4R)-N-[(S)-(4-cyclopropyl-3-fluorophenyl)(phenyl)methyl]-4-fluoro-1-[2-(4-methyl-1H-imidazol-1-yl)acetyl]pyrrolidine-2-carboxamide] | 1430 | > 100000 | 91
4 | Cc1coc(CC(=O)N2C[C@H](F)C[C@H]2C(=O)N[C@@H](c2ccccc2)c2ccc(C3CC(F)(F)C3)c(F)c2)n1 [Compound 554, (2S,4R)-N-[(S)-[4-(3,3-difluorocyclobutyl)-3-fluorophenyl](phenyl)methyl]-4-fluoro-1-[2-(4-methyl-1,3-oxazol-2-yl)acetyl]pyrrolidine-2-carboxamide] | 380 | > 100000 | 34
5 | O=C(N[C@@H](c1ccccc1)c1ccc(C2CC2)c(F)c1)[C@@H]1C[C@@H](F)CN1C(=O)CN1C(=O)Cc2ccccc21 [Compound 454, (2S,4R)-N-[(S)-(4-cyclopropyl-3-fluorophenyl)(phenyl)methyl]-4-fluoro-1-[2-(2-oxo-2,3-dihydro-1H-indol-1-yl)acetyl]pyrrolidine-2-carboxamide] | 1600 | > 100000 | 72
6 | Cc1cn(CC(=O)N2C[C@H](F)C[C@H]2C(=O)N[C@@H](c2ccccc2)c2ccc(C3CC3)c(F)n2)c(=O)[nH]c1=O [Compound 295, (2S,4R)-N-[(S)-(5-cyclopropyl-6-fluoropyridin-2-yl)(phenyl)methyl]-4-fluoro-1-[2-(5-methyl-2,4-dioxo-1,2,3,4-tetrahydropyrimidin-1-yl)acetyl]pyrrolidine-2-carboxamide] | 590 | > 100000 | 13
7 | CC(C)c1ccc([C@@H](NC(=O)[C@@H]2C[C@@H](F)CN2C(=O)Cn2cc(N3CCC3)nn2)c2ccccc2)nc1 [Compound 711, (2S,4R)-1-{2-[4-(azetidin-1-yl)-1H-1,2,3-triazol-1-yl]acetyl}-4-fluoro-N-[(S)-phenyl[5-(propan-2-yl)pyridin-2-yl]methyl]pyrrolidine-2-carboxamide] | 630 | > 100000 | 30
8 | CN1CCN(C(=O)NCC(=O)N2C[C@H](F)C[C@H]2C(=O)N[C@@H](c2ccccc2)c2ccc(C3CC3)c(F)c2)CC1 [Compound 486, N-{2-[(2S,4R)-2-{[(S)-(4-cyclopropyl-3-fluorophenyl)(phenyl)methyl]carbamoyl}-4-fluoropyrrolidin-1-yl]-2-oxoethyl}-4-methylpiperazine-1-carboxamide] | 1020 | > 100000 | 41
9 | Cc1nn(CC(=O)N2C[C@H](F)C[C@H]2C(=O)N[C@@H](c2ccccc2)c2ccc(C3CC(F)(F)C3)c(F)n2)c(=O)o1 [Compound 502, (2S,4R)-N-[(S)-[5-(3,3-difluorocyclobutyl)-6-fluoropyridin-2-yl](phenyl)methyl]-4-fluoro-1-[2-(5-methyl-2-oxo-2,3-dihydro-1,3,4-oxadiazol-3-yl)acetyl]pyrrolidine-2-carboxamide] | 170 | > 100000 | 10
10 | CNC(=O)NCC(=O)N1C[C@H](F)C[C@H]1C(=O)N[C@@H](c1ccccc1)c1ccc(C(C)C)cn1 [Compound 261, (2S,4R)-4-fluoro-1-{2-[(methylcarbamoyl)amino]acetyl}-N-[(S)-phenyl[5-(propan-2-yl)pyridin-2-yl]methyl]pyrrolidine-2-carboxamide] | 1800 | > 100000 | 59
11 | O=C(N[C@@H](c1ccccc1)c1ccc(C2CC(F)(F)C2)c(F)c1)[C@@H]1C[C@@H](F)CN1C(=O)Cn1cnc2ccccc21 [Compound 549, (2S,4R)-1-[2-(1H-1,3-benzodiazol-1-yl)acetyl]-N-[(S)-[4-(3,3-difluorocyclobutyl)-3-fluorophenyl](phenyl)methyl]-4-fluoropyrrolidine-2-carboxamide] | 120 | > 100000 | 6
12 | CC(C)c1ccc([C@@H](NC(=O)[C@@H]2C[C@@H](F)CN2C(=O)Cc2ccc3ncnn3c2)c2ccccc2)cc1F [Compound 358, (2S,4R)-4-fluoro-N-[(S)-[3-fluoro-4-(propan-2-yl)phenyl](phenyl)methyl]-1-(2-{[1,2,4]triazolo[1,5-a]pyridin-6-yl}acetyl)pyrrolidine-2-carboxamide] | 190 | > 100000 | 11
13 | Cc1ccc2c(CC(=O)N3C[C@H](F)C[C@H]3C(=O)N[C@@H](c3ccccc3)c3ccc(C(C)C)cn3)cccc2n1 [Compound 257, (2S,4R)-4-fluoro-1-[2-(2-methylquinolin-5-yl)acetyl]-N-[(S)-phenyl[5-(propan-2-yl)pyridin-2-yl]methyl]pyrrolidine-2-carboxamide] | 240 | > 100000 | 7
14 | CCn1c(=O)ccn(CC(=O)N2C[C@H](F)C[C@H]2C(=O)N[C@@H](c2ccccc2)c2ccc(C(C)C)c(F)n2)c1=O [Compound 786, (2S,4R)-1-[2-(3-ethyl-2,4-dioxo-1,2,3,4-tetrahydropyrimidin-1-yl)acetyl]-4-fluoro-N-[(S)-[6-fluoro-5-(propan-2-yl)pyridin-2-yl](phenyl)methyl] pyrrolidine-2-carboxamide] | 50 | > 100000 | 3
15 | CC(C)c1ccc([C@@H](NC(=O)[C@@H]2C[C@@H](F)CN2C(=O)Cc2nnc(C(F)F)o2)c2ccccc2)cc1F [Compound 383, (2S,4R)-1-{2-[5-(difluoromethyl)-1,3,4-oxadiazol-2-yl]acetyl}-4-fluoro-N-[(S)-[3-fluoro-4-(propan-2-yl)phenyl](phenyl)methyl] pyrrolidine-2-carboxamide] | 410 | > 100000 | 27
16 | O=C(N[C@@H](c1ccccc1)c1ccc(C2CC2)c(F)n1)[C@@H]1C[C@@H](F)CN1C(=O)Cn1cnc2ccccc21 [Compound 294, (2S,4R)-1-[2-(1H-1,3-benzodiazol-1-yl)acetyl]-N-[(S)-(5-cyclopropyl-6-fluoropyridin-2-yl)(phenyl)methyl]-4-fluoropyrrolidine-2-carboxamide] | 160 | > 100000 | 6
